Key:
[1] = tested on: Salmonella enteritidis; experiment: In vitro reduction of Salmonella enteritidis in the presence of autoclaved broiler feed; assay type: cell-based; details: 1 h, 37° C.
Experimental: Another study was performed to determine the bactericidal effects of the same three peracids investigated in the first study. Eleven tubes were filled with 0.5 g of autoclaved broiler feed to which 100 ul of a Salmonella enteritidis culture broth was added. Two of the tubes were additionally filled with 1.9 ml of distilled water and the remaining nine were filled with an additional 1.7 ml of H2O. The peracids were added to the nine tubes to achieve a 0.0125% of each of the three peracids and two subsequent dilutions to achieve 0.00625% and 0.003125% of each. The samples were incubated at 37° C. and vortexed. After 1 h, the samples were plated and diluted to yield a plate count of 10^4 and 10^3 cfu/ml

[2] = cited from earlier work
[3] = in water, alcohol, ether, and sulfuric acid; cited from earlier work
[4] = tested on: Salmonella enteritidis; experiment: Reduction of Salmonella in broiler crops, peracid in drinking water during 8 h feed withdrawal (Example 6); assay type: in vivo; details: 8 h exposure, broilers
Experimental: To determine the biocidal effect of perlactic and percitric on Salmonella in the upper GI tract (crops) of broiler chickens, peracid solutions were added to the drinkers such that the concentration of perlactic was 0.006 or 0.003% and percitric was at a 0.03% concentration. The birds were deprived of water for 8 h prior to an 8 h feed withdrawal period and allowed to drink the water for 8 h. Prior to reintroduction of the water with the test compounds, the birds were gavaged with 1 ml of 10^8 Salmonella. After the 8 h test consumption, the birds were terminated, the crops removed aseptically, stomached for 30 seconds, diluted and plated onto BGA with NO/NA.

[5] = tested on: Salmonella enteritidis; experiment: Reduction of Salmonella in broiler crops under different consumption pressures (Example 7); assay type: in vivo; details: 0.003125% (30 ppm) in drinking water
Experimental: Another experiment was designed to further characterize the disinfection effect of perlactic acids when different consumption pressures were placed on 8 week-old broilers. All of the birds had the feed removed 8 hours prior to slaughter. Perlactic acid was added at 0.003125% (30 ppm) to the drinking water for the last 8 hours of the study (feed withdrawal period). The first treatment group had water removed 8 hours prior to the 8 h feed withdrawal (PL 8-8-8) and the second treatment group had only feed withdrawal/perlactic treatment (PL 8—8). The last group had access to the peracid in their drinking water 12 hours prior to slaughter and the feed taken up 4 hours after that yielding a final feed withdrawal time of 8 h (PL 12-8). At the conclusion of the study, the crops were processed microbiologically similar to the methods described for FIG. 3.

[6] = tested on: Salmonella enteritidis; experiment: Reduction of Salmonella in crops of SE challenged broilers, perlactic acid vs lactic acid and hydrogen peroxide (Example 8); assay type: in vivo; details: 30 ppm in drinking water for 8 hours
Experimental: In the final broiler study, forty-five 8-week old broilers were divided up into 3 groups with […]. Upon feed withdrawal, all birds were gavaged with 1 ml of a 1×10^8 challenge of Salmonella enteritidis. At this time, all feed was removed and the drinking water treatments administered. […] All groups received the same withdrawal time of 8 hours. At the time of kill, the crops were aseptically collected after cervical dislocation. The crops were added to […] bags containing 10 ml of PBS. The bags were stomached for 30 sec where upon 250 μl were removed and added to 2.25 ml of PBS. […] Groups 2 and 3 were directly plated from the […] bags by taking 100 μl from the bag and spread plating it onto BGA plates. These plates were incubated for 24 hrs at 37° C. The plates were counted for CFUs and log 10 reductions. After the bags had been used for dilution purposes, 9.0 ml of tetrathionate broth was added for enrichment purposes. These bags were incubated along with the plates. 24 hours later, 1 loopful of the bag contents were streaked onto BGA plates for +/- observations.

[7] = tested on: bacteria in the crops of market-age broilers; experiment: Biocidal effect of a drinking water oxidant in the crops of market-age broilers; assay type: in vivo; details: dissolved in drinking water
Experimental: A variety of chemicals have been evaluated for efficacy as a drinking water-based biocide for administration to birds during the period of feed withdrawal. […] It was found, however, that the biocidal effect of this dissolved, short-lived oxidant was minimal in the crops of market-age broilers. This ineffectiveness is thought to be due primarily to the high ozone demand of the ingesta itself, which consumes the majority of the ozone and subsequently prevents delivery of sufficient ozone to the bacteria surfaces.

[8] = tested on: bacteria; experiment: In vitro bacterial kill in the presence of interfering compounds found in poultry ingesta; assay type: cell-based; details: in the presence of potentially interfering compounds of poultry ingesta
Text: Organic compounds have been evaluated for biocidal efficacy in the upper GI tract of poultry, including D-limonene. […] Organic acids have also found utility as a drinking water biocide for gut bacteria.

[9] = all concentrations (0.0125%, 0.00625%, 0.003125%)
[10] = highest concentration (0.0125%)

## CC(=O)OO [peracetic acid]
[1]; [9]
  biocidal effect on Salmonella enteritidis: poor biocide
[2]; 1% solution
  time to lose half its strength through hydrolysis: 6 days
[3]
  solubility: freely soluble

## OO [HP, hydrogen peroxide, reference compound]
[2]; 30 to 90% solution
  loss of active ingredients: less than 1 % per year

## CC(O)C(=O)OO (centres unmarked) [perlactic acid]
[1]; [9]
  biocidal effect on Salmonella enteritidis: showed a disinfection efficacy at all concentrations
[1]; [10]
  biocidal effect on Salmonella enteritidis: eliminated the Salmonella to levels that fell below the detection limit of this assay
[4]; 0.003% in drinking water
  log reduction of Salmonella in the crop: two
[4]; 0.006 or 0.003% in drinking water
  reduction of Salmonella in the crop: multiple log reduction
[5]; same concentrate used 1 week later
  effectiveness in reducing Salmonella in crops compared to FIG. 3: diminished
[5]; PL 8-8-8, PL 8-8, PL 12-8
  influence of increased exposure time or water deprivation prior to feed withdrawal on biocidal effect: does not increase the biocidal effect
[6]
  reduction in Salmonella in the crop as compared to the control: 2.71 Log10

## O=[O+][O-] [Ozone]
[7]
  biocidal effect in the crops: minimal

## C=C(C)[C@H]1CC=C(C)CC1 [D-limonene]
[8]
  in vitro antibacterial effect: excellent bacterial kills

## CC(=O)O [acetic acid]
[8]
  in vitro antibacterial effect: excellent in vitro antibacterial capability

## percitric acid
[1]; diluted samples (0.00625%, 0.003125%)
  biocidal effect on Salmonella enteritidis: not as efficient
[1]; [10]
  biocidal effect on Salmonella enteritidis: significant biocidal effects
[4]; 0.03% in drinking water
  reduction of Salmonella in the crop: multiple log reduction

Reference: US6518307B2, “Control of microbial populations in the gastrointestinal tract of animals” (Lynntech, Inc., priority 2000, dated 2003)
